Test results from US8895522B2, “Composition and method for the prevention, treatment and/or alleviation of an inflammatory disease” (Index Pharmaceuticals AB, priority 2005, dated 2014).
“Also recorded” adds a separate entry of the source.

What was measured:
murine spleen cells [1] = assay: Induction of IFN-gamma from murine spleen cells (ELISpot); assay type: cell-based; details: mouse splenocytes, 48 hours incubation, FIG. 10
Protocol: (§1) The spleen was excised from a test animal. A single cell suspension was prepared using a nylon cell strainer (100 μm). The cells were washed once in complete RPMI medium at 1200 rpm for 7-10 minutes, whereupon the supernatant was poured off and the cells resuspended. 1 ml of “red blood cell lysing buffer” was added, and the mixture incubated for 1-2 minutes at RT. 5 ml of complete RPMI was added and the mixture centrifuged as above (C2).
(§2) The supernatant was poured off, the pellet resuspended and another 5 ml of complete RPML added. The cells were counted by dilution in trypan blue, so that between 50-100 cells were counted in the area.
(§3) Approximately 500,000 mouse splenocyte cells per well were incubated for 48 hours in the presence of the different oligonucleotides at the concentrations indicated. Specifically, SEQ.ID.NO 3, SEQ.ID.NO 4, and SEQ.ID.NO 7. Following incubation the wells were developed according to the kit suppliers recommendations and the average number of positive spots per well were determined using a AID ELISpot reader system, (Strassberg Germany).
Regarding the production of IFN-gamma, mouse splenocytes were treated as described above, with the intention to monitor levels of IFN-gamma by Elispot asssy. Identical conditions and concentrations of oligonucleotides where used.
(§4) Elispot assays where performed according to the manufactures recommended guidelines (MabTech) and the plates were analyzed using an AID ELISpot reader system (Autoimmun Diagnostika GmbH, Strassberg, Germany).

[2] = tested on: LPS-induced airway inflammation in mice; assay: Third LPS induced asthma study in mice, BALF cell counts; assay type: in vivo; details: for influx of leukocytes in BALF compared to the control group / influx of neutrophils in BALF compared to the control group: 150 μg/animal, significance if the non-responding control individual is excluded; for influx of leukocytes in BALF compared to the control group: FIG. 7; for influx of neutrophils in BALF compared to the control group: FIG. 8; for number of infiltrating inflammatory cells in the BAL fluid: oligonucleotides 150 μg/animal tracheal 18 h prior to LPS, dexamethasone 5 mg/kg i.p. 1 h before, FIG. 6
Protocol: As with examples 1 and 2, aim of the study was to examine the pharmaceutical effects of SEQ. ID. NO. 3 using airway inflammation as disease endpoint, and to compare the efficacy with that of corticosteroids. In addition, a number of control oligonucleotides were included being SEQ.ID.NO 4, and SEQ.ID.NO 7. The induction of LPS induced asthma and the protocol of analyses was conducted as described in Example 2.
Briefly, LPS-induced airway inflammation in mice was treated with SEQ.ID.NOs 3, 4 and 7 (150 μg/animal) administered by tracheal instillation 18 h prior to challenge with 5 μg LPS. The untreated group represents healthy individuals and mice in the control group were given solvent only (H2O+LPS). The control treatment of dexamethasone (5 mg/kg, i.p.) was given one hour before LPS instillation. Analysis of BAL fluid was performed 20 hours after LPS instillation. The total number of leukocytes and neutrophils in BAL fluid is shown. Data expressed as mean±SD (n=6). ***p<0.001, *p<0.05, using One-way ANOVA with Dunnett's post hoc corrections versus control group.

murine spleen cells [3] = assay: Induction of IL-10 from murine spleen cells (ELISpot); assay type: cell-based; details: mouse splenocytes, 48 hours incubation; for induction of IL-10 (positive spots per well): FIG. 9
Protocol: as §1, §2, §3, §4

human PBMC [4] = assay: Induction of IL-10 from healthy human PBMC (ELISpot); assay type: cell-based; details: PBMC from 5 healthy individuals, 48 hours; for induction of IL-10 producing cells: FIG. 11
Protocol: (§5) Whole blood was obtained from healthy blood donors. PBMCs were prepared from 30 ml whole blood according to the following protocol:
(§6) 30 ml blood was transferred directly into heparinized tubes. All blood was transferred into one 50 ml Falcon tube and PBS added up to 50 ml. 15 ml Ficoll (17-1440-03, obtained from Amersham Bioscience AB, Uppsala) was then added into two falcon tubes (50 ml). The PBS-treated blood was then carefully added on the top of to Ficoll, 25 ml to each tube. The tubes were then centrifuged 25 min at 1700 RPM at RT (20° C.).
(§7) RPMIc medium was prepared under sterile conditions, using a 0.22 uM filter. (RPMIc denotes a RPMI 1640 culture medium (R0883, Sigma) supplemented with 5% heat-inactivated (56° C.,1 h) FCS 1.5 mM L-glutamine (G7513, Sigma), 100 U/ml penicillin and 100 ug/ml streptomycin, PEST (P0781, Sigma), hepes (H0887, Sigma), and gentamycin (G1272, Sigma)).
(§8) The interphase was carefully pipetted from the two tubes into 2x 50mi Falcon tubes. PBS was added up to 50 ml in each tube, and the tubes centrifuged for 10 min at 1700 RPM (4° C.).
(§9) The supernatant was discarded, and PBS added to 30 ml, whereupon the tubes were centrifuged at 10 min at 1500 RPM (4° C.). Again, the supernatant was discarded, 10 ml PBS added, and the pellets from the two falcon tubes pooled.
(§10) The cells were counted and left in PBS, then centrifuged at 1200 RPM, 10 min. Medium was then added to obtain the concentration of interest, and the cells counted (16 squares)×3. The mean value was calculated and multiplied with the dilution factor×10^4=cells/ml. Diluting the cells to 10 million/ml will result in 500.000 cells/50 ul medium, 6 million/ml will be 300.000/50 ul medium.
as §4
Approximately 500,000 PBMC cells per well, derived from blood from healthy human donors, were incubated for 48 hours in the presence of the different oligonucleotides. Specifically, SEQ.ID.NO 1, SEQ.ID.NO 2, SEQ.ID.NO 6 and SEQ.ID.NO 8. Following incubation, the wells were developed according to the kit supplier's recommendations and the average number of positive cells producing IL-10 per well were counted using an AID ELISpot reader system, (Autoimmun Diagnostika GmbH, Strassberg, Germany).

[5] = tested on: LPS induced airway inflammation in mice; assay: First animal study: LPS-induced airway inflammation in mice, analysis of leukocytes in BALF; assay type: in vivo, C57BL/6 mice
Protocol: C57BL/6 mice were purchased from Bomholtgaard, Ry, Denmark. Animals were fed with standard chow and water ad libitum and allowed to acclimatize for at least 7 days in an accredited animal facility before use. In all experiments female mice of ages between 9-11 weeks were used. All experiments were approved by the local ethical committee for animal experiments in Umea, Sweden.
Bacterial endotoxin, LPS (Escherichia coli 0128:B12, Sigma, St. Louis, Mo.) was administered to anaesthetised mice (enflurane) by tracheal instillation in a total volume of 50 μl in a concentration of 5 μg. Control mice were given solvent alone (endotoxin-free distilled water). Through previous experiments the optimum concentration of LPS was determined to be 5 μg.
The mice were sacrificed by cervical dislocation 20 h after LPS instillation and their tracheae was cannulated with polyethylene tubing. Bronchoalveolar 20 lavage (BAL) was performed using 1-ml aliquots of ice-cold Hanks balanced salt solution to a recovered volume of 4 ml. Total number of leucocytes in bronchoalveolar lavage fluid (BALF) was counted using a Bürker chamber and trypan blue solution. Differential cell counts were determined on duplicate cytocentrifuged preparations stained with May-Grünewald Gemisa. Three 25 hundred cells were counted from each slide and the percentage of neutrophils determined.
Mice were treated with an experimental oligonucleotide (SEQ.ID.NO 3, in concentrations of 25 μg, 100 μg or 150 μg. The oligonucleotide was administrated by tracheal instillation to anaesthetised mice in a total volume of 50 μl 18 h prior to instillation of 5 μg LPS. Control mice received 50 μl endotoxin-free distilled water.
To compare the effect of the oligonucleotide to conventional treatment with anti-inflammatory corticosteroids, one group of mice received dexamethasone (Sigma St Louis, Mo.). Dexamethasone (10 mg/kg body weight) dissolved in PBS was 6(12) injected intraperitoneally (i.p) into mice 1 h prior LPS exposure. […]
The results are expressed as mean+standard error of the mean (SEM). […]

[6] = tested on: LPS induced airway inflammation in mice; assay: Second LPS induced asthma study in mice, BALF cell counts; assay type: in vivo; details: single dose 150 ug tracheal instillation 18 h prior to LPS; BALF 20 h; p=0.005
Protocol: As with example 2, aim of the study was to examine the pharmaceutical effects of SEQ. ID. NO. 3 using airway inflammation as disease endpoint, and to compare the efficacy with that of corticosteroids. This study included larger numbers of animals per group to increases statistical significance. The induction of LPS induced asthma and the protocol of analyses was conducted as described in example 2.
Briefly, mice were treated with an SEQ.ID.NO 3 (150 μg/animal) administered by tracheal instillation 18 h prior to challenge with 5 μg LPS. One group of mice represented healthy untreated individuals. Control mice were given solvent only (H2O) and LPS. One group received dexamethasone (5 mg/kg) one hour before LPS instillation and one group were given a combination treatment. Analysis of BALF was performed 20 hours after the last treatment. Total number of cells in BALF and number of neutrophils is shown. Data is expressed as mean±SD. ***=p<0.001 and **=p<0.01, in treated groups vs the control group (one-way ANOVA and Bonferroni post hoc test). Calculations were performed by SPSS software (12.0). n=6 in all groups.

human PBMC [7] = assay: Induction of IFN-alpha from healthy human PBMC (ELISpot); assay type: cell-based; details: PBMC from 10 healthy individuals, 48 hours; for induction of IFN-alpha producing cells: FIG. 13
Protocol: as §5, §6, §7, §8, §9, §10, §4
For this assay again 500,000 PBMC cells per well, derived from healthy human blood were incubated for 48 hours in the presence of the different oligonucleotides. Specifically, SEQ.ID.NO 1, SEQ.ID.NO 2, and SEQ.ID.NO 8. Following incubation, the wells were developed according to the kit suppliers recommendations and the average number of positive cells producing IFN-alpha per well were determined using an AID ELISpot reader.

human PBMC [8] = assay: Induction of IFN-gamma from healthy human PBMC (ELISpot); assay type: cell-based; details: PBMC from 7 healthy individuals, 48 hours, FIG. 12
Protocol: as §5, §6
as §7, with “Sigma)). […]” for “Sigma)).”
The cells were counted and left in PBS, then centrifuged at 1200 RPM, 10 min. Medium was then added to obtain the concentration of interest, and the cells counted (16 squares)×3. The mean value was calculated and multiplied with the dilution factor×10^4=cells/ml. […]
Elispot assays where performed according to the manufactures recommended guidelines (MabTech) and the plates were analyzed using an AID ELISpot reader system (Autoimmun Diagnostika GmbH, Strassberg, Germany). […]

| Substance | induction of IFN-gamma compared to medium alone (murine spleen cells [1]) | influx of leukocytes in BALF compared to the control group [2] | influx of neutrophils in BALF compared to the control group [2] | number of infiltrating inflammatory cells in the BAL fluid [2] | induction of IL-10 (positive spots per well) (murine spleen cells [3]) | concentration at which IL-10 producing cells are first induced (murine spleen cells [3]) | induction of IL-10 producing cells (human PBMC [4]) | induction of IFN-alpha producing cells (human PBMC [7]) | also measured |
| --- | --- | --- | --- | --- | --- | --- | --- | --- | --- |
| 5′-G*A*A*ACAGATGCTCCAT*G*G*T-3′ (antisense GAAACAGATGCTCCATGGT; listed as DNA, chemistry not fully specified) [SEQ.ID.NO 4, (Mu p65 rev)AS] | no such inducing potential | no effect | no effect | little effect | no induction |  |  |  |  |
| 5′-T*C*C*A*T*G*A*C*G*T*T*C*C*T*G*A*C*G*T*T-3′ [SEQ.ID.NO 7] | capable of inducing significant levels of IFN-gamma |  |  | more dramatic level of inhibition being as effective as dexamethasone | induce significant levels of IL-10 | 0.1 µM |  |  |  |
| 5′-G*G*T GCA TCG ATG CAG*G*G*G*G*G-3′ (GGTGCATCGATGCAGGGGGG; listed as DNA, chemistry not fully specified) [SEQ.ID.NO 6] |  |  |  |  |  |  | strong potential to induce IL-10 |  |  |
| 5′-G*A*A*ACAGATCGTCCAT*G*G*T-3′ (antisense GAAACAGATCGTCCATGGT; listed as DNA, chemistry not fully specified) [SEQ.ID.NO 3, (Mu p65)AS, CpG-containing ODN] | capable of inducing significant levels of IFN-gamma | significantly reduced inflammatory response | significantly reduced inflammatory response | reduced numbers of infiltrating inflammatory cells | induce significant levels of IL-10 | 5 µM |  |  | reduction in the number of recovered neutrophils in BAL ([5]; 150 μg by tracheal instillation 18 h prior to LPS, BALF 20 h after LPS): more than 50%; anti-inflammatory effect compared with dexamethasone ([5]; 150 μg intratracheal vs dexamethasone 10 mg/kg i.p. 1 h prior to LPS): at least as powerful as high-dose treatment with dexamethasone; neutrophils in BALF / neutrophilic response in the airways ([5]; 25, 100 or 150 μg by tracheal instillation 18 h prior to 5 μg LPS, BALF 20 h after LPS): dose-dependent reduction; also recorded: significantly reduced neutrophilic response; reduction in BAL fluid cell number verses control [6]: approximately 50% |
| 5′-T*C*G*T*C*G*T*T*T*T*G*T*C*G*T*T*T*T*G*T*C*G*T*T-3′ [SEQ.ID.NO 8] |  |  |  |  |  |  | strong potential to induce IL-10 | strong potential to induce IFN-alpha | concentration at which induction of IFN-alpha starts / is apparent (human PBMC [7]): 0.1 µM |
| 5′-G*G*A*ACAGTTGCTCCAT*G*G*C-3′ (antisense GGAACAGTTGCTCCATGGC; listed as DNA, chemistry not fully specified) [SEQ.ID.NO 2, (Hu p65 rev)AS] |  |  |  |  |  |  | failed to induce IL-10 | fails to induce any measurable levels of IFN-alpha | induction of IFN-gamma producing cells versus background (human PBMC [8]): background level is not exceeded; concentration from which IL-10 producing cells are induced (human PBMC [4]): around 100 uM |
